Test results reported in the kinase profiling compilation of Christmann-Franck et al. (2016).

Tests used:
Experiment in all cases: KINOMEscan competition binding
Details in all cases: compound 10.0 µM
NUAK2 (human) = NUAK2 (human) (UniProt Q9H093)
TNNI3K (human) = TNNI3K (human) (UniProt Q59H18)
MAP3K11 (human) = MAP3K11 (human) (UniProt Q16584)
ABL2 (human) = ABL2 (human) (UniProt P42684)
TBK1 (human) = TBK1 (human) (UniProt Q9UHD2)
MAP2K7 (human) = MAP2K7 (human) (UniProt O14733)
LATS2 (human) = LATS2 (human) (UniProt Q9NRM7)
STK32C (human) = STK32C (human) (UniProt Q86UX6)
RPS6KA4 KD1 (human) = RPS6KA4 KD1 (human) (UniProt O75676)
DYRK2 (human) = DYRK2 (human) (UniProt Q92630)
PHKG1 (human) = PHKG1 (human) (UniProt Q16816)
GRK7 (human) = GRK7 (human) (UniProt Q8WTQ7)
LATS1 (human) = LATS1 (human) (UniProt O95835)
ROCK1 (human) = ROCK1 (human) (UniProt Q13464)
PIK3CB (human) = PIK3CB (human) (UniProt P42338)
PDGFRB (human) = PDGFRB (human) (UniProt P09619)
[1] = system: FLT3 (human), P36888 [R834Q]
SNRK (human) = SNRK (human) (UniProt Q9NRH2)
MAP2K4 (human) = MAP2K4 (human) (UniProt P45985)
PKMYT1 (human) = PKMYT1 (human) (UniProt Q99640)
EPHA5 (human) = EPHA5 (human) (UniProt P54756)
TTK (human) = TTK (human) (UniProt P33981)
RPS6KA6 KD2 (human) = RPS6KA6 KD2 (human) (UniProt Q9UK32)
DCLK3 (human) = DCLK3 (human) (UniProt Q9C098)
BRAF (human) = BRAF (human) (UniProt P15056)
CDC42BPA (human) = CDC42BPA (human) (UniProt Q5VT25)
AKT3 (human) = AKT3 (human) (UniProt Q9Y243)
DSTYK (human) = DSTYK (human) (UniProt Q6XUX3)
CPK1 (P.falciparum) = system: CPK1 (P.falciparum)
MAP2K5 (human) = MAP2K5 (human) (UniProt Q13163)
ULK2 (human) = ULK2 (human) (UniProt Q8IYT8)
ACVRL1 (human) = ACVRL1 (human) (UniProt P37023)
EPHA1 (human) = EPHA1 (human) (UniProt P21709)
ULK1 (human) = ULK1 (human) (UniProt O75385)
EPHA7 (human) = EPHA7 (human) (UniProt Q15375)
STK16 (human) = STK16 (human) (UniProt O75716)
PIP5K1A (human) = PIP5K1A (human) (UniProt Q99755)
TEC (human) = TEC (human) (UniProt P42680)
EPHA2 (human) = EPHA2 (human) (UniProt P29317)
PIK3C2B (human) = PIK3C2B (human) (UniProt O00750)

Chain of DSTYK (human) (Q6XUX3 whole entry, looked up): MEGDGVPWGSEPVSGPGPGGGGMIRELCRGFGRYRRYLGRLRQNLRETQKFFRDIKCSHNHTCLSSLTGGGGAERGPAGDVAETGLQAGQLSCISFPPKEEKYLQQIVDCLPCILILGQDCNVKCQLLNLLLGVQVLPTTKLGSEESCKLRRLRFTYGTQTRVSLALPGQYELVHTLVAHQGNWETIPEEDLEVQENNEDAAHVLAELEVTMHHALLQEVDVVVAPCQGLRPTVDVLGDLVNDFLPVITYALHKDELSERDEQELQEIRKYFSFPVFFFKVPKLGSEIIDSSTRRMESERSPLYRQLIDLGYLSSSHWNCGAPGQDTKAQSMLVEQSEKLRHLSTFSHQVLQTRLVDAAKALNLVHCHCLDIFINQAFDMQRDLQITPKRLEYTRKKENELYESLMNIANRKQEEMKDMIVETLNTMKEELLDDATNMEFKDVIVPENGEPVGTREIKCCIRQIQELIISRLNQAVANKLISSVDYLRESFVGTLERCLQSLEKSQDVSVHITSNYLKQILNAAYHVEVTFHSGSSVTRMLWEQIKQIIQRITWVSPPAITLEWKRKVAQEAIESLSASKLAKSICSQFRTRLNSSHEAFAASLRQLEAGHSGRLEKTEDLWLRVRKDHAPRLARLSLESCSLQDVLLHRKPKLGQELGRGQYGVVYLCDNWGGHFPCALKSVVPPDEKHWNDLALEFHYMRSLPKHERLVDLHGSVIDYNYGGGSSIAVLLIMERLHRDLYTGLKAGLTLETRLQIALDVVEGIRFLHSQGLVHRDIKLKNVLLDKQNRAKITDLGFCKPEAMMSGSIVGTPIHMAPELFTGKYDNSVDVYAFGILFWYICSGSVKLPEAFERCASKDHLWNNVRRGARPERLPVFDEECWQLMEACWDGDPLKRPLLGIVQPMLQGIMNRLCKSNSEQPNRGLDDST
Chain of EPHA7 (human) (Q15375 whole entry, looked up): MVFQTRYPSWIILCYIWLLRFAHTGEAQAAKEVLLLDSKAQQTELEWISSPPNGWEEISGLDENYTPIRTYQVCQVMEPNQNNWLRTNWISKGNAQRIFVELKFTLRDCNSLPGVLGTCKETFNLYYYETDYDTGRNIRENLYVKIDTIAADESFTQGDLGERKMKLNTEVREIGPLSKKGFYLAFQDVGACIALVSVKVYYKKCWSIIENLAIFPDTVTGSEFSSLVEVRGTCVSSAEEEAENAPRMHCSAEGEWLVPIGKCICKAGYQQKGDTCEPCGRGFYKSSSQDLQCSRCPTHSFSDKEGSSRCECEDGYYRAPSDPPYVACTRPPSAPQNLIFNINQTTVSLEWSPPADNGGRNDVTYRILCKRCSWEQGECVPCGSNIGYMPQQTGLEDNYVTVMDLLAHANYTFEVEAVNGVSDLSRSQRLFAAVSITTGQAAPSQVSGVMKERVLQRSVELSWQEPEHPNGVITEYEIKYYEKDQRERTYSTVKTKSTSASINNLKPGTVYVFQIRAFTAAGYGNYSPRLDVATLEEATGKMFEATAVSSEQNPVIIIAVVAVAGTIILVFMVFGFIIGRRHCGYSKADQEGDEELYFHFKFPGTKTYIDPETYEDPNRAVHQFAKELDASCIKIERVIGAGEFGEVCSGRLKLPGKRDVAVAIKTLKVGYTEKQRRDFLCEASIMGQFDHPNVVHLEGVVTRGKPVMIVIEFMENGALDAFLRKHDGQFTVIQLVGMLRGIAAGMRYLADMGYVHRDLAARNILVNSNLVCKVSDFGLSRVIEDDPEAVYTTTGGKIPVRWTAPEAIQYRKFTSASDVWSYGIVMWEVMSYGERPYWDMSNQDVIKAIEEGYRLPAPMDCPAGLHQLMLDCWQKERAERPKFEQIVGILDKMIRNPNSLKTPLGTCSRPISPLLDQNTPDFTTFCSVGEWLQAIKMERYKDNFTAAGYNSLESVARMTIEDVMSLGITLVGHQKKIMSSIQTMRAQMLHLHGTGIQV
Chain of ABL2 (human) (P42684 whole entry, looked up): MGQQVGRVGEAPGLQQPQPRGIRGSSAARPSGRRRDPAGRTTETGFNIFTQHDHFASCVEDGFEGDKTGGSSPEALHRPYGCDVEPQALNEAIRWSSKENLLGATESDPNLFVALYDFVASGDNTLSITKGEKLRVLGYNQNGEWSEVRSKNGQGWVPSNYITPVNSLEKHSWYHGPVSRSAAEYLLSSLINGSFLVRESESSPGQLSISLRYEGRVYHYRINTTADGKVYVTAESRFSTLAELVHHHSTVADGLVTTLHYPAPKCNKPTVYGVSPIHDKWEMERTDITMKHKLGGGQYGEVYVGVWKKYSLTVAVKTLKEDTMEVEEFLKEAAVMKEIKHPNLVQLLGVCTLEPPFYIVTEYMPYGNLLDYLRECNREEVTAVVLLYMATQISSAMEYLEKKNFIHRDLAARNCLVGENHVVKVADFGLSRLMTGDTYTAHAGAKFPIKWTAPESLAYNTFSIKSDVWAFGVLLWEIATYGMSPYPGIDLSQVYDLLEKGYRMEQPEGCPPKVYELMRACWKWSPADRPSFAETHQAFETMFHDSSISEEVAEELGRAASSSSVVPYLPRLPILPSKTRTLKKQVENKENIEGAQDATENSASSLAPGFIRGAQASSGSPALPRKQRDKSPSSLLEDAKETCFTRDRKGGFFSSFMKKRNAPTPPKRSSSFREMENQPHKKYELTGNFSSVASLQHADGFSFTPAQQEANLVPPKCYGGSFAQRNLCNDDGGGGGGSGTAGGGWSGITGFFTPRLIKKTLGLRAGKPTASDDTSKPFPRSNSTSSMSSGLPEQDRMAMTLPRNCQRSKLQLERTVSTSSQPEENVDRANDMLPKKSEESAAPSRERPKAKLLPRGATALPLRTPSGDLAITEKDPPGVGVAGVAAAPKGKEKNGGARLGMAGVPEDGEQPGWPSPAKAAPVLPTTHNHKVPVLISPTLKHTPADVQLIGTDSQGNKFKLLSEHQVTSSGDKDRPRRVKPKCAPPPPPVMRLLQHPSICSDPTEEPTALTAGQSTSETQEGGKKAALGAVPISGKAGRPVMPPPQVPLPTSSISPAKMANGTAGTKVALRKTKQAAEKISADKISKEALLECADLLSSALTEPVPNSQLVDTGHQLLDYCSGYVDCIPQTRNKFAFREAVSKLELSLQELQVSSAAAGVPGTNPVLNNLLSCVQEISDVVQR
Chain of NUAK2 (human) (Q9H093 whole entry, looked up): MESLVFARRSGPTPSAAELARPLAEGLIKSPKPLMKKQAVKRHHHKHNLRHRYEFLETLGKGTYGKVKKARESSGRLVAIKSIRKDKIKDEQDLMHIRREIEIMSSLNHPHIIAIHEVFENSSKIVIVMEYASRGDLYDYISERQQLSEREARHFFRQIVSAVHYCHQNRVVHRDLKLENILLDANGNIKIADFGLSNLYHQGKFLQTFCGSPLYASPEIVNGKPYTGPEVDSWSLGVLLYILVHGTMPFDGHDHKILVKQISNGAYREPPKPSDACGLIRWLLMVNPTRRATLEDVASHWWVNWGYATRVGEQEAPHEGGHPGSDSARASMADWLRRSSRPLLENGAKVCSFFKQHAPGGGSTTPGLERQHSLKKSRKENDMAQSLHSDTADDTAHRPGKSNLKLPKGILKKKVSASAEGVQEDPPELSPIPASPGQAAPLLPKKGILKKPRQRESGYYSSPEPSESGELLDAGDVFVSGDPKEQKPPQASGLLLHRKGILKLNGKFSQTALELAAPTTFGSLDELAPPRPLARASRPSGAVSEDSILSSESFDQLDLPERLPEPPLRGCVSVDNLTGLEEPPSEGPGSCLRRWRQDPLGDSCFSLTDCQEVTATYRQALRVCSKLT
Chain of GRK7 (human) (Q8WTQ7 whole entry, looked up): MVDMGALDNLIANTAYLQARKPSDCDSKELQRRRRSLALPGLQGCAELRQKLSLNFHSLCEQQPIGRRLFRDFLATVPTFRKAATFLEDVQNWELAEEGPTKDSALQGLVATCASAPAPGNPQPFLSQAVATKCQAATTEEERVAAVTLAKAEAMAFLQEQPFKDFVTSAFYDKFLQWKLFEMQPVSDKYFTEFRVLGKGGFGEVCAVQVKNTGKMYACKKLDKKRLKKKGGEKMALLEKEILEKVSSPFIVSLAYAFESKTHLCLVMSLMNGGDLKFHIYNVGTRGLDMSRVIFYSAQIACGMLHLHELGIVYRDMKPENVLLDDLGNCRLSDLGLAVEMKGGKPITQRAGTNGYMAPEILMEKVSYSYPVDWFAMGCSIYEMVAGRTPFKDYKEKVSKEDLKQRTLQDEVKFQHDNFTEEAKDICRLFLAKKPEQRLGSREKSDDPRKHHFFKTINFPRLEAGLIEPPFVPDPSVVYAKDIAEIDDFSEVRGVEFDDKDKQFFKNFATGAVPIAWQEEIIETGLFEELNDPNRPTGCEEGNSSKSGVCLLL
Chain of TEC (human) (P42680 whole entry, looked up): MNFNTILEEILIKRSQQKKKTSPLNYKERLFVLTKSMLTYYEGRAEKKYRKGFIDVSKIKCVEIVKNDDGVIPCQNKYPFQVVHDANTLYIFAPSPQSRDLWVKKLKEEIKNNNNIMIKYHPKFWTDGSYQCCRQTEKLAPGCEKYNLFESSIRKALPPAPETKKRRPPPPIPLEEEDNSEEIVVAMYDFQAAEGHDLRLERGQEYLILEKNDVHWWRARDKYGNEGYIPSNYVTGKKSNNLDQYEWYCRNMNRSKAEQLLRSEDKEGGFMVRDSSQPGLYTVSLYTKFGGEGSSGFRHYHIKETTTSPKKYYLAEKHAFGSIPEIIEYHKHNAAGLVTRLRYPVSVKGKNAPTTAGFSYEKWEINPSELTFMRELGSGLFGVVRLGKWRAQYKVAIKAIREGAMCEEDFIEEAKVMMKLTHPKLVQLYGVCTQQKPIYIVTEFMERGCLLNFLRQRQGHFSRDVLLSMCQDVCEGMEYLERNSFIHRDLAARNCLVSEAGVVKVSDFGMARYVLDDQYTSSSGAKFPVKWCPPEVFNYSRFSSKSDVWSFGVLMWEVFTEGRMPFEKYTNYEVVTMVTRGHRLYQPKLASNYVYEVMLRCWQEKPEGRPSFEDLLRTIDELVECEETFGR

Compound	kinase still bound, per cent of control (NUAK2 (human)) [%]	kinase still bound, per cent of control (TNNI3K (human)) [%]	kinase still bound, per cent of control (MAP3K11 (human)) [%]	kinase still bound, per cent of control (TBK1 (human)) [%]	kinase still bound, per cent of control (MAP2K7 (human)) [%]	kinase still bound, per cent of control (LATS2 (human)) [%]	kinase still bound, per cent of control (STK32C (human)) [%]	kinase still bound, per cent of control (RPS6KA4 KD1 (human)) [%]	kinase still bound, per cent of control (DYRK2 (human)) [%]	kinase still bound, per cent of control (PHKG1 (human)) [%]	kinase still bound, per cent of control (GRK7 (human)) [%]	kinase still bound, per cent of control (LATS1 (human)) [%]	kinase still bound, per cent of control (ROCK1 (human)) [%]	kinase still bound, per cent of control (PIK3CB (human)) [%]	kinase still bound, per cent of control (PDGFRB (human)) [%]	kinase still bound, per cent of control (SNRK (human)) [%]	kinase still bound, per cent of control (MAP2K4 (human)) [%]	kinase still bound, per cent of control (PKMYT1 (human)) [%]	kinase still bound, per cent of control (EPHA5 (human)) [%]	kinase still bound, per cent of control (TTK (human)) [%]	also measured
COc1cc(C(=O)N2CCC(N3CCN(C)CC3)CC2)ccc1Nc1ncc2c(n1)N(C)c1ccccc1C(=O)N2C	47	100	100	97	100	95	100	100	76	54	100	100	100	96	100	94	100	80	95	28	kinase still bound, per cent of control (ABL2 (human)): 97%; kinase still bound, per cent of control [1]: 100%; kinase still bound, per cent of control (RPS6KA6 KD2 (human)): 2.2%; kinase still bound, per cent of control (DCLK3 (human)): 90%; kinase still bound, per cent of control (BRAF (human)): 81%; kinase still bound, per cent of control (CDC42BPA (human)): 100%; kinase still bound, per cent of control (AKT3 (human)): 100%; kinase still bound, per cent of control (DSTYK (human)): 16%; kinase still bound, per cent of control (CPK1 (P.falciparum)): 100%; kinase still bound, per cent of control (MAP2K5 (human)): 85%; kinase still bound, per cent of control (ULK2 (human)): 67%; kinase still bound, per cent of control (ACVRL1 (human)): 100%; kinase still bound, per cent of control (EPHA1 (human)): 100%; kinase still bound, per cent of control (ULK1 (human)): 80%; kinase still bound, per cent of control (EPHA7 (human)): 97%; kinase still bound, per cent of control (STK16 (human)): 62%; kinase still bound, per cent of control (PIP5K1A (human)): 90%; kinase still bound, per cent of control (TEC (human)): 100%; kinase still bound, per cent of control (EPHA2 (human)): 92%; kinase still bound, per cent of control (PIK3C2B (human)): 100%
COc1cc2ncn(-c3cc(OCc4ccccc4C(F)(F)F)c(C(N)=O)s3)c2cc1OC	6	81	81	83	87	50	100	69	37	88	52	100	4.7	54	5.3	83	100	60	90	87	kinase still bound, per cent of control (DCLK3 (human)): 100%; kinase still bound, per cent of control (BRAF (human)): 100%; kinase still bound, per cent of control (CDC42BPA (human)): 68%; kinase still bound, per cent of control (AKT3 (human)): 100%; kinase still bound, per cent of control (DSTYK (human)): 88%; kinase still bound, per cent of control (CPK1 (P.falciparum)): 75%; kinase still bound, per cent of control (MAP2K5 (human)): 0.45%; kinase still bound, per cent of control (ACVRL1 (human)): 100%; kinase still bound, per cent of control (EPHA1 (human)): 84%; kinase still bound, per cent of control (ULK1 (human)): 92%; kinase still bound, per cent of control (EPHA7 (human)): 79%; kinase still bound, per cent of control (STK16 (human)): 49%; kinase still bound, per cent of control (PIP5K1A (human)): 3.4%; kinase still bound, per cent of control (TEC (human)): 94%; kinase still bound, per cent of control (EPHA2 (human)): 44%; kinase still bound, per cent of control (PIK3C2B (human)): 63%
O=c1cc(N2CCOCC2)oc2c(-c3cccc4c3sc3ccccc34)cccc12	100	86	97	84	100	100	54	79	100	100	92	100	100	0	76	73	100	92	100	100	kinase still bound, per cent of control (ABL2 (human)): 92%; kinase still bound, per cent of control [1]: 100%; kinase still bound, per cent of control (RPS6KA6 KD2 (human)): 79%; kinase still bound, per cent of control (DCLK3 (human)): 100%; kinase still bound, per cent of control (BRAF (human)): 100%; kinase still bound, per cent of control (CDC42BPA (human)): 94%; kinase still bound, per cent of control (AKT3 (human)): 98%; kinase still bound, per cent of control (DSTYK (human)): 99%; kinase still bound, per cent of control (CPK1 (P.falciparum)): 98%; kinase still bound, per cent of control (MAP2K5 (human)): 98%; kinase still bound, per cent of control (ULK2 (human)): 98%; kinase still bound, per cent of control (ACVRL1 (human)): 94%; kinase still bound, per cent of control (EPHA1 (human)): 92%; kinase still bound, per cent of control (ULK1 (human)): 41%; kinase still bound, per cent of control (EPHA7 (human)): 85%; kinase still bound, per cent of control (STK16 (human)): 98%; kinase still bound, per cent of control (PIP5K1A (human)): 100%; kinase still bound, per cent of control (TEC (human)): 89%; kinase still bound, per cent of control (EPHA2 (human)): 72%; kinase still bound, per cent of control (PIK3C2B (human)): 20%
N#CCNC(=O)c1ccc(-c2ccnc(Nc3ccc(N4CCOCC4)cc3)n2)cc1	8.9	100	95	10	100	74	100	100	76	78	100	100	2.9	100	2.2	89	32	100	87	22	kinase still bound, per cent of control (ABL2 (human)): 57%; kinase still bound, per cent of control [1]: 100%; kinase still bound, per cent of control (RPS6KA6 KD2 (human)): 52%; kinase still bound, per cent of control (DCLK3 (human)): 0.45%; kinase still bound, per cent of control (BRAF (human)): 74%; kinase still bound, per cent of control (CDC42BPA (human)): 67%; kinase still bound, per cent of control (AKT3 (human)): 100%; kinase still bound, per cent of control (DSTYK (human)): 38%; kinase still bound, per cent of control (CPK1 (P.falciparum)): 100%; kinase still bound, per cent of control (MAP2K5 (human)): 100%; kinase still bound, per cent of control (ULK2 (human)): 60%; kinase still bound, per cent of control (ACVRL1 (human)): 47%; kinase still bound, per cent of control (EPHA1 (human)): 100%; kinase still bound, per cent of control (ULK1 (human)): 40%; kinase still bound, per cent of control (EPHA7 (human)): 96%; kinase still bound, per cent of control (STK16 (human)): 6.2%; kinase still bound, per cent of control (PIP5K1A (human)): 39%; kinase still bound, per cent of control (TEC (human)): 100%; kinase still bound, per cent of control (EPHA2 (human)): 100%; kinase still bound, per cent of control (PIK3C2B (human)): 56%
